Experimental data reported in patent publication US20220387344A1, “COMPOSITIONS AND METHODS FOR INHIBITING COLLAGEN LOSS” (LYCORED LTD., priority 2019, published 2022).
One block for each compound: values may come before it.

How the values were obtained:
NHDF cells = assay: Collagen 1a1 secretion by NHDF cells under H2O2 oxidative stress (ELISA); assay type: cell-based, human; settings: 50 μM H2O2
Protocol: Cells were incubated with Lumenato for 24 h and then hydrogen peroxide (H2O2) was added, and cells were incubated for additional 24 h to induce oxidative stress. The incubation medium was collected and the levels of collagen 1 a 1 protein secretion to the medium were analyzed using a specific ELISA detection kit.

[1] = tested on: KERTr human keratinocytes; assay: Viability of KERTr keratinocytes under H2O2 oxidative stress (XTT); assay type: cell-based; settings: H2O2 alone
Protocol: (§1) The inventors used hydrogen peroxide, H2O2, to induce oxidative stress in KERTr human keratinocytes, and analyzed the effects on cell number (cell death) and the secretion of MMP1. Cells viability was determined using the XTT cell proliferation kit, and MMP1 levels were measured by ELISA.

[2] = tested on: KERTr human keratinocytes; assay: MMP1 secretion by KERTr keratinocytes under H2O2 oxidative stress (ELISA); assay type: cell-based; settings: H2O2 alone
Protocol: as §1

[3] = Plasma carotenoids after Lumenato capsules (bioavailability); assay type: in vivo; settings: delivered within Lumenato capsules, plasma at 1, 2, 3 and 4 weeks post administration
Description: The inventors have examined the bioavailability of carotenoids delivered within Lumenato capsules. The following carotenoids were quantified in the plasma at 1 week, 2 weeks, 3 weeks, and 4 weeks post administration. Phytoene, phytofluene and zeta-carotene which are the main carotenoids in Lumenato (the golden tomato extract) were absorbed well (FIG. 15).

human neutrophils [4] = assay: MMP-9 secretion from stimulated human neutrophils (ELISA); assay type: cell-based; settings: agonist alone
Protocol: (§2) Blood was drawn from healthy volunteers. Neutrophils, at 95% purity were obtained by Ficoll-Hypaque centrifugation, dextran sedimentation, and hypotonic lysis of erythrocytes within 1 hour after blood was drawn. Cells were counted and their viability was determined by trypan blue exclusion. Human MMP-9 concentrations in cell culture supernatants were quantified by ELISA kits (R&D systems Minneapolis, Minn., USA). […] Neutrophils were activated by 100 ng/ml TNFα or 100 ng/ml IL8 that are released from the skin cells during exposure to UV and activated. In addition, neutrophils were activated with […] for comparison.

human neutrophils [5] = assay: MPO secretion from stimulated human neutrophils; assay type: cell-based; settings: agonist alone
Protocol: as §2, with “100 μl of 37° C. O-dianisidine hydrochloride solution (1 mg O-dianisidine, 10 ml phosphate buffer pH 6.0+0.0015% H2O2) were added to 100 μl supernatant” for “Human MMP-9 concentrations”, “a 96-well plate immediately before the optical density was followed” for “cell culture supernatants were quantified”, “the change of absorbance at 450 nm at 2 minute intervals on a Thermomax Microplate Reader (Molecular Devices, Melno Park, Calif.).” for “ELISA kits (R&D systems Minneapolis, Minn., USA).”

human neutrophils [6] = assay: MPO activity of TNFα-activated neutrophils incubated overnight with single or combined phytonutrients; assay type: cell-based; settings: sole addition
Protocol: 100 μl of 37° C. O-dianisidine hydrochloride solution (1 mg O-dianisidine, 10 ml phosphate buffer pH 6.0+0.0015% H2O2) were added to 100 μl supernatant in a 96-well plate immediately before the optical density was followed by the change of absorbance at 450 nm at 2 minute intervals on a Thermomax Microplate Reader (Molecular Devices, Melno Park, Calif.).
Tocopherol and phytosterol were added to 5×10^5 human neutrophils 20 min before addition of 100 ng/ml TNFα and maintained overnight at 37° C. in a humidified atmosphere containing 5% CO2. MPO activity was measured in the supernatant of the cultured neutrophils.
Zeta carotene, phytoene, tocopherol, phytosterol, or combinations thereof, were added to 5×10^5 human neutrophils 20 min before addition of 100 ng/ml TNFα and maintained overnight at 37° C. in humidified atmosphere containing 5% CO2. MPO activity was measured as escribed above.
The inventors examined the effect of multiple phytonutrients on MPO activity in stimulated neutrophils. The sole addition of tocopherol or phytosterol had no effect on the release and activity of MPO from neutrophils activated with TNFα (FIGS. 13A-13B).
The inventors also examined the effect of adding zeta carotene with either phytoene, a tocopherol, or a phytosterol, on MPO activity. […]

[7] = 2 hr of activation, TNFα or IL8 100 ng/ml

Compound: OO [H2O2, hydrogen peroxide]
- reduction in collagen 1a1 secretion (NHDF cells): about 10 fold
- cell number (cell death) [1]: dose dependent cell death
- secretion of MMP1 [2]: increased secretion of MMP1

- absorption (plasma concentration) [3]: absorbed well
Compound: CC(C)=CCC/C(C)=C/CC/C(C)=C/CC/C(C)=C/C=C/C=C(\C)CC/C=C(\C)CC/C=C(\C)CCC=C(C)C [phytoene]

- absorption (plasma concentration) [3]: absorbed well
Compound: CC(C)=CCC/C(C)=C/CC/C(C)=C/C=C/C(C)=C/C=C/C=C(\C)CC/C=C(\C)CC/C=C(\C)CCC=C(C)C [phytofluene]

- absorption (plasma concentration) ([3]; listed as Zeta carotene): absorbed extremely well
- absorption (plasma concentration) ([3]; listed as zeta-carotene): absorbed well
Compound: CC(C)=CCC/C(C)=C/CC\C(C)=C/C=C/C(C)=C/C=C/C=C(C)/C=C/C=C(/C)CC/C=C(\C)CCC=C(C)C [zeta carotene]

Compound: IL8: interleukin 8, agonist used to stimulate neutrophils
- release of MMP-9 (human neutrophils [4]; [7]): 9.12 ± 0.2 ng/mL
- release of MMP-9 (human neutrophils [4]; 4 hr of activation): 17.86 ± 0.4 ng/mL
- release of MPO (human neutrophils [5]; 4 h of activation): 0.4 ± 0.08 ng/mL

Compound: TNFα
- release of MMP-9 (human neutrophils [4]; [7]): 16.52 ± 0.5 ng/mL
- release of MPO (human neutrophils [5]; 4 h of activation): 0.28 ± 0.001 ng/mL

Compound: formyl-Methionine-Leucine-Phenylalanine [fMLP]
- release of MMP-9 (human neutrophils [4]; 30 min of activation): 10.41 ± 0.4 ng/mL
- release of MMP-9 (human neutrophils [4]; 4 hr of activation): 13.45 ± 0.3 ng/mL
- release of MPO (human neutrophils [5]; 30 min of activation): 0.54 ± 0.004 ng/mL

Compound: phytosterol
- effect on release and activity of MPO (human neutrophils [6]): no effect

Compound: tocopherol
- effect on release and activity of MPO (human neutrophils [6]): no effect
